Measured values as given in patent US20130266557A1, “METHODS FOR TREATMENT OF A SARCOMA USING AN EPIMETABOLIC SHIFTER (COENZYME Q10)” (priority 2009, published 2013).

Columns and labels:
[1] = target: mitochondrial complex II (Homo sapiens, UniProt O14521+P21912+Q99643); settings: cancer cells; Mazzio and Soliman 2004; cited from earlier work
[2] = system: mitochondrial preparation of NICES0808 sample; experiment: 2-D gel analysis of mitochondrial preparation; format: cell-based, human; settings: direction not given
Protocol: NCIES0808 cells were treated with Q10 separately in larger volumes for isolation of sufficient mitochondria for proteomic analysis. Cells were treated with media, 50 uM Q10 or 100 uM Q10 for 0, 3, 6, 24 and 48 hours in T175 flasks. Two flasks were grown for each condition and cells from the two were pooled during harvesting. After the required treatment time, cells were trypsinized and washed twice in ice cold TBS. Pelleted cells were snap frozen in liquid nitrogen and frozen at −80° C. until mitochondria were isolated. Mitochondria were isolated using manufacturers instructions available with the MitoProfile Mitosciences Isolation Kit for Cultured Cells (Mitosciences Inc, Eugene, Oreg.).
Before isoelectric focusing (IEF), samples were solubilized in 40 mM Tris, 7 M urea, 2 M thiourea, and 1% C7 zwitterionic detergent, reduced with tributylphosphine, and alkylated with 10 mM acrylamide for 90 min at room temperature. After the sample was run through a 10-kDa cutoff Amicon Ultra device with at least 3 volumes of the resuspension buffer, consisting of 7 M urea, 2 M thiourea, and 2% CHAPS to reduce the conductivity of the sample. One hundred micrograms of protein were subjected to IEF on 11-cm pH 3 to 10, pH 4 to 7 or pH 6 to 11 immobilized pH gradient strips (GE, Amersham, USA) to 100,000 volts hour. After IEF, immobilized pH gradient strips were equilibrated in 6 M urea, 2% SDS, 50 mM Tris-acetate buffer, pH 7.0, and 0.01% bromphenol blue and subjected to SDS-polyacrylamide gel electrophoresis on 8 to 16% Tris-HCl Precast Gel, 1 mm (Bio-Rad, USA). The gels were run in duplicate. They were fixed, stained in SYPRO Ruby, 80 mL/gel (Invitrogen, USA) and imaged on Fuji FLA-5100 laser scanner.
A mitochondrial preparation of NICES0808 sample was also analyzed for proteins and below, in Table 8, is the list of proteins the amount of which was modulated following treatment with CoQ10.

Chain of mitochondrial complex II (P31040 43-664 partner): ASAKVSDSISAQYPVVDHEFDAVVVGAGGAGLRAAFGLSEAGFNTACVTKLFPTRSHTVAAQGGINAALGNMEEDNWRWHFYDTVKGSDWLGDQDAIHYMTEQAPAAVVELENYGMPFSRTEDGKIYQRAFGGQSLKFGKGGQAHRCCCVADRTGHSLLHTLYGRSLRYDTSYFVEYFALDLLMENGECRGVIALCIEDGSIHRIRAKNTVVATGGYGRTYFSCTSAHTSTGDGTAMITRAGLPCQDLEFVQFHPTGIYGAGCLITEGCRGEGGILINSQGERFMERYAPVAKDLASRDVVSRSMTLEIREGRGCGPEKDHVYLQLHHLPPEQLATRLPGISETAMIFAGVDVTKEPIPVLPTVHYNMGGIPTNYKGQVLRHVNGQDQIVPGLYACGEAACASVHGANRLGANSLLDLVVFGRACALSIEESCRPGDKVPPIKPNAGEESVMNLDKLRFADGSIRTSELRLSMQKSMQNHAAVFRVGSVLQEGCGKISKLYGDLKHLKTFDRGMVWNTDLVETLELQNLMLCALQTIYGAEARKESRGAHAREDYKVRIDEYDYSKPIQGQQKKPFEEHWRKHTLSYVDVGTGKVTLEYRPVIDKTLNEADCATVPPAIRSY
Chain of mitochondrial complex II (P21912 29-280): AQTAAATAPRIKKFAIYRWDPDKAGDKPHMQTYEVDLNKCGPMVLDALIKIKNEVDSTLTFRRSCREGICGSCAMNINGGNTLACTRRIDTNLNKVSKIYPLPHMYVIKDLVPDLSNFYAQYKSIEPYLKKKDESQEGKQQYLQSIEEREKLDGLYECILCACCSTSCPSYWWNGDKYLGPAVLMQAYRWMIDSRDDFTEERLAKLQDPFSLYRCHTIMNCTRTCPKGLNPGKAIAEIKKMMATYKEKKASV
Chain of mitochondrial complex II (Q99643 30-169): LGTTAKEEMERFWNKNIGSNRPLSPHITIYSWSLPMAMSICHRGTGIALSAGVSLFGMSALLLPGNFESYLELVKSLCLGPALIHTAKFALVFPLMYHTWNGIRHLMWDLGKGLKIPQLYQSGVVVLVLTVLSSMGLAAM
Chain of mitochondrial complex II (O14521 57-159): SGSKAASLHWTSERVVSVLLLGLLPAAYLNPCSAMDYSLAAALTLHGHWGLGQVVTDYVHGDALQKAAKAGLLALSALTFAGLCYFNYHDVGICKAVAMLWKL

Substance: Coenzyme Q10 [CoQ10]
- Effect on Vmax of mitochondrial complex II activity [1]: increase the Vmax of mitochondrial complex II activity
- Proteins Modulated in NCIES0808 cells treated with CoQ10 (value = protein) ([2]; gel spot 37): eukaryotic translation elongation factor 1 beta 2
- Proteins Modulated in NCIES0808 cells treated with CoQ10 (value = protein) ([2]; gel spot 108): retinoblastoma binding protein 4 isoform A
- Proteins Modulated in NCIES0808 cells treated with CoQ10 (value = protein) ([2]; gel spot 172): cytoplasmic dynein IC-2
- Proteins Modulated in NCIES0808 cells treated with CoQ10 (value = protein) ([2]; gel spot 227): chaperonin containing TCP1, subunit 3
- Proteins Modulated in NCIES0808 cells treated with CoQ10 (value = protein) ([2]; gel spot 1000): TAR DNA binding protein
